We go through 11 molecules from patent publication US5710170A, “Tri-aryl ethane derivatives as PDE IV inhibitors” (Merck Frosst Canada, Inc., priority 1996, dated 1998).

The target in series [1] is T1, GST-Met 248 PDE IVa (GST fusion protein of the human recombinant phosphodiesterase IVa (met-248)) (Homo sapiens, UniProt P27815).
T1 construct: phosphodiesterase IVa (met-248); made in house; host or cells: Sf-9 insect cells (baculovirus)
Put plainly: SPA based PDE activity assay: inhibition of human recombinant PDE IVa (GST-Met 248). Format: biochemical. The following applies: 100 nM cAMP; purified GST fusion protein, baculovirus/Sf-9 expression system. The protocol:
SPA Based PDE Activity Assay Protocol
Compounds which inhibit the hydrolysis of cAMP to AMP by the type-IV cAMP-specific phosphodiesterases were screened in 96-well plate format as follows:
In a 96 well-plate at 30° C. was added the test compound (dissolved in 2 ul DMSO), 188 ml of substrate buffer containing [2,8-^3 H] adenosine 3',5'-cyclic phosphate (cAMP, 100 nM to 50 μM), 10 mM MgCl2, 1 mM EDTA, 50 mM Tris, pH 7.5. The reaction was initiated by the addition of […] of human recombinant PDE-IV (the amount was controlled so that ~10% product was formed in 10 min. at 30° C.). The reaction was stopped after 10 min. by the addition of 1 mg of PDE-SPA beads (Amersham). The product AMP generated was quantified on a Microbeta 96-well plate counter. The signal in the absence of enzyme was defined as the background. 100% activity was defined as the signal detected in the presence of enzyme and DMSO with the background subtracted. Percentage of inhibition was calculated accordingly. IC50 value was approximated with a non-linear regression fit of the standard 4-parameter/multiple binding sites equation from a ten point titration.
IC50 values shown in Table 4 were determined with 100 nM cAMP using the purified GST fusion protein of the human recombinant phosphodiesterase IVa (met-248) produced from a baculovims/Sf-9 expression system.

The next series relates to papillary muscle. The following applies: general statement; cited from earlier work.
The subject of a further series is right atrial muscle. The following applies: right atria; general statement; cited from earlier work.
The conditions of series [2]: used in asthma as a bronchodilator; cited from earlier work.

T1 sequence (P27815 248-886 limits assumed): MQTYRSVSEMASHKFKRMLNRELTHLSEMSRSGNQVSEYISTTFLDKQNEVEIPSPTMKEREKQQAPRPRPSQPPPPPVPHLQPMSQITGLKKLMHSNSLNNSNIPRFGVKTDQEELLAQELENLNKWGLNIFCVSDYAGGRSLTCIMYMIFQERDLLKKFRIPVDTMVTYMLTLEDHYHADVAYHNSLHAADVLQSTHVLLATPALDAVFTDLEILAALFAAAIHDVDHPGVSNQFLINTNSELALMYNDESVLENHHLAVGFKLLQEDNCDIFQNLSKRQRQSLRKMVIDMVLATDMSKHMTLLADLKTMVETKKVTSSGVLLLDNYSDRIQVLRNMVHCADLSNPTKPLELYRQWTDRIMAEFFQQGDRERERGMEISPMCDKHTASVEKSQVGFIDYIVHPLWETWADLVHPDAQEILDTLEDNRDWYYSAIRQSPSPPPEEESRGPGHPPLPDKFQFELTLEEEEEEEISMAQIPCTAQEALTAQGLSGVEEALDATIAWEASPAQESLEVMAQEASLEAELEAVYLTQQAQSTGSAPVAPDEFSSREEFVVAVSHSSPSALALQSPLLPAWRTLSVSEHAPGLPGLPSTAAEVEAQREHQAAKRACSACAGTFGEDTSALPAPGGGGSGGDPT

The IC50 is the concentration at which inhibition is half-maximal. As for `COc1ccc([C@H](Cc2ccncc2)c2ccc(C(=O)NS(C)(=O)=O)cc2)cc1OC1CCCC1` [Example 1, N-{(R)-4-[1-(3-Cyclopentyloxy-4-methoxyphenyl)-2-(4-pyridyl)ethyl]benzoyl}methanesulfonamide], the IC50 in series [1] turned out to be 4000 pM.
The same measure, in the same setting: the figure for `COc1ccc([C@H](Cc2ccncc2)c2ccc(C(=O)NS(=O)(=O)c3ccccc3)cc2)cc1OC1CCCC1` [Example 2, N-{(R)-4-[1-(3-Cyclopentyloxy-4-methoxyphenyl)-2-(4-pyridyl)ethyl]benzoyl}benzenesulfonamide] is 500 pM; for `COc1ccc([C@H](Cc2ccncc2)c2ccc(C(=O)NS(=O)(=O)C(F)(F)F)cc2)cc1OC1CCCC1` [Example 3, N-{(R)-4-[1-(3-Cyclopentyloxy-4-methoxyphenyl)-2-(4-pyridyl)ethyl]benzoyl}trifluoromethanesulfonamide] it is 1000 pM; for `COc1ccc([C@H](Cc2ccncc2)c2ccc(C(=O)NS(=O)(=O)c3ccccc3C)cc2)cc1OC1CCCC1` [Example 4, N-{(R)-4-[1-(3-Cyclopentyloxy-4-methoxyphenyl)-2-(4-pyridyl)ethyl]benzoyl}o-toluenesulfonamide] it is 400 pM.
For the molecule `COc1ccc([C@H](Cc2ccncc2)c2ccc(CC(=O)NS(=O)(=O)c3ccccc3)cc2)cc1OC1CCCC1` [Example 5, N-{(R)-4-[1-(3-Cyclopentyloxy-4-methoxyphenyl)-2-(4-pyridyl)ethyl]phenylacetyl}benzenesulfonamide], the IC50 in series [1] is 1500 pM.
Same read-out and setting: as for `COc1ccc([C@H](Cc2ccncc2)c2ccc(CC(=O)NS(=O)(=O)C(F)(F)F)cc2)cc1OC1CCCC1` [Example 6, N-{(R)-4-[1-(3-Cyclopentyloxy-4-methoxyphenyl)-2-(4-pyridyl)ethyl]phenylacetyl}trifluoromethanesulfonamide], the figure is 800 pM; as for `COc1ccc([C@H](Cc2ccncc2)c2ccc(C(O)(C(F)(F)F)C(F)(F)F)cc2)cc1OC1CCCC1` [Example 7, (R)-4-{2-(3-Cyclopentyloxy-4-methoxyphenyl)-2-[4-(1,1,1,3,3,3-hexafluoro-2-hydroxypropan-2-yl)phenyl]ethyl}pyridine], 200 pM; as for `COc1ccc(C(Cc2ccncc2)c2ccc(S(=O)(=O)NC(=O)c3ccccc3C)cc2)cc1OC1CCCC1` (stereo not shown) [Example 8, N-(o-Toluoyl)-4-[1-(3-Cyclopentyloxy-4-methoxyphenyl)-2-(4-pyridyl)ethyl]benzenenesulfonamide], 700 pM.
Take `Cc1[nH]c(=O)c(C#N)cc1-c1ccncc1` [milrinone]: in the series on papillary muscle, the “direct inotropic effects of known PDE inhibitors” value was “positive chronotropic and inotropic effects”. The “direct chronotropic effects of known PDE inhibitors” value in the series with right atrial muscle was “positive chronotropic and inotropic effects”.
As for `COc1ccc(C2CNC(=O)C2)cc1OC1CCCC1` (stereo not shown) [rolipram], the “direct inotropic effects of known PDE inhibitors” value in the series with papillary muscle is given as “do not have any direct effects”. For the same molecule, the “direct chronotropic effects of known PDE inhibitors” value in the series with right atrial muscle is “do not have any direct effects”.
For the molecule `Cn1c(=O)c2[nH]cnc2n(C)c1=O` [theophylline], the cardiovascular changes result in series [2] is listed as “significant cardiovascular changes such as tachycardia”.
